Test results: patent US20220330549A1, “USE OF N-BENZYLBENZAMIDE-BASED COMPOUND AS HERBICIDE” (Northwest A&F University, priority 2020, published 2022)

Columns and labels:
Assay type in all cases: in vivo
Barnyard grass [1] = test: Herbicidal activity test for indoor pre-emergence soil treatment; set-up: key: level 1-9; higher = more weed remaining vs blank control; details: 150 g a.i./ha, visual inspection 21 days after treatment
Method in brief: (§1)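 Pre-emergence soil spray per NY/T 1155.3-2006: weed seeds sown in moistened neutral sandy loam (organic content ≤2%), covered with 0.5–2.0 cm soil, then sprayed 24 h later with a water-diluted 10% emulsifiable concentrate at 150 g(a.i.)/ha. Visual rating after 21 days on a 1–9 scale.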

green bristlegrass [2] = test: as above; set-up: key: level 1-9; higher = more weed remaining vs blank control; details: 150 g a.i./ha, visual inspection 21 days after treatment
Method in brief: as §1

Piemarker [3] = test: as above; set-up: key: level 1-9; higher = more weed remaining vs blank control; details: 150 g a.i./ha, visual inspection 21 days after treatment
Method in brief: as §1

Humulus scandens [4] = test: as above; details: 150 g a.i./ha, visual inspection 21 days after treatment
Method in brief: as §1

Digitaria sanguinalis [5] = test: Field test for weed control in a corn field; details: 150 g a.i./ha, after treatment
Method in brief: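 Field trial in a corn field following GB/T 17980.42-2000. Test compounds were formulated as 10% emulsifiable concentrates, diluted in water and sprayed post-emergence at 150 g(a.i.)/ha when corn had 2 to 5 leaves, with 4 replicates on 20 m^2 plots. Control of Digitaria sanguinalis was scored on a 1-9 scale based on weed damage relative to the untreated blank area.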

Chenopodium album = test: Field test for weed control in a corn field; details: 150 g a.i./ha, after treatment
Method in brief: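 A corn-field efficacy trial following GB/T 17980.42-2000 tested post-emergence control of Chenopodium album. Test compounds formulated as 10% emulsifiable concentrates were diluted in water and sprayed at 150 g(a.i.)/ha when the corn had 2 leaves to 5 leaves, on 20 m^2 plots with 4 replicates. Herbicidal activity was rated on a 1-9 scale by damage symptoms and severity.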

Convolvulus arvensis = test: Field test for weed control in a corn field; details: 150 g a.i./ha, after treatment
Method in brief: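 Field trial of weed control against Convolvulus arvensis in corn, run following GB/T 17980.42-2000. Test agents were formulated as 10% emulsifiable concentrates and sprayed in water at 150 g(a.i.)/ha when corn plants had 2 to 5 leaves. Each treatment was replicated 4 times on 20 m^2 plots, and 25% mesotrione oil dispersion served as the control agent.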

Barnyard grass [6] = test: Field test for weed control in a corn field; details: 150 g a.i./ha, 30 days after treatment
Method in brief: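 Corn-field efficacy trial following GB/T 17980.42-2000. Test compounds were formulated as 10% emulsifiable concentrates, diluted in water and sprayed post-emergence at 150 g(a.i.)/ha when corn had 2 to 5 leaves. Each treatment was replicated 4 times on 20 m^2 plots. Barnyard grass control was rated on a 1-9 damage scale.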

Acalypha australis = test: Field test for weed control in a corn field; details: 150 g a.i./ha, after treatment
Method in brief: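 Post-emergence field trial in a corn field following GB/T 17980.42-2000. Test compounds were formulated as 10% emulsifiable concentrates, diluted in water, and sprayed at 150 g(a.i.)/ha when corn had 2 to 5 leaves, with 4 replicates on 20 m^2 plots. Mesotrione 25% oil dispersion served as the control agent. Weed control was scored on a 1-9 scale.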

Solanum nigrum = test: Field test for weed control in a corn field; details: 150 g a.i./ha, 30 days after treatment
Method in brief: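 Post-emergence weed control was tested in a corn field following GB/T 17980.42-2000. Compounds were made into 10% emulsifiable concentrates, diluted in water and sprayed at 150 g(a.i.)/ha when corn had 2 to 5 leaves after sowing, in 20 m^2 plots with 4 replicates. Effects on Solanum nigrum were graded on a 1-9 scale relative to the blank control area.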

Portulaca oleracea = test: Field test for weed control in a corn field; details: 150 g a.i./ha, after treatment
Method in brief: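 Field efficacy trial in corn following GB/T 17980.42-2000. Test compounds were prepared as 10% emulsifiable concentrates, diluted in water, and sprayed at 150 g(a.i.)/ha when corn had 2 to 5 leaves after sowing. Plots were 20 m^2 with 4 replicates per treatment. Herbicidal activity was scored on a 1-9 scale from weed damage symptoms and severity.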

green bristlegrass [7] = test: Field test for weed control in a corn field; details: 150 g a.i./ha, after treatment
Method in brief: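 Post-emergence weed control was tested in a corn field following GB/T 17980.42-2000. When the corn had 2 leaves to 5 leaves after sowing, 10% emulsifiable concentrates diluted in water were sprayed at 150 g(a.i.)/ha on 20 m^2 plots, four replicates per treatment. Effects on green bristlegrass were scored on a 1-9 damage scale relative to the blank control area.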

Amaranthus retroflexus [8] = test: Field test for weed control in a corn field; details: 150 g a.i./ha, 30 days after treatment
Method in brief: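 Field efficacy trial in a corn field following GB/T 17980.42-2000. Test compounds were formulated as 10% emulsifiable concentrates, diluted in water and sprayed post-emergence when corn had 2 to 5 leaves. Each treatment covered 20 m^2 with 4 replicates. A 25% mesotrione oil dispersion served as control. Damage to Amaranthus retroflexus was rated on a 1-9 scale against untreated blank plots.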

goosegrass = test: Field test for weed control in a corn field; details: 150 g a.i./ha, after treatment
Method in brief: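 Weed control efficacy against goosegrass was tested in a corn field following GB/T 17980.42-2000. Compounds formulated as 10% emulsifiable concentrates were diluted in water and sprayed post-emergence at 150 g(a.i.)/ha when corn had 2 to 5 leaves, with 4 replicates of 20 m^2 plots. Herbicidal activity was rated on a 1-9 scale by damage symptoms and severity.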

nutgrass flatsedge = test: Field test for weed control in a corn field; details: 150 g a.i./ha, after treatment
Method in brief: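 A corn field efficacy trial following GB/T 17980.42-2000 assessed post-emergence control of nutgrass flatsedge. Test compounds were formulated as 10% emulsifiable concentrates, diluted in water, and sprayed at 150 g(a.i.)/ha when the corn had 2 to 5 leaves. Each treatment had 4 replicates on 20 m^2 plots. Herbicidal activity was graded on a 1-9 scale by damage symptoms and severity.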

Digitaria sanguinalis [9] = test: Herbicidal activity test for indoor post-emergence spraying on stems and leaves; set-up: key: grade level by weed remaining vs blank control, e.g. 5 = 10.1-15%; details: 150 g a.i./ha, visual inspection 21 days after treatment
Method in brief: (§2)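 Run per NY/T 1155.4-2006: weeds sown, grown in greenhouse, then sprayed post-emergence on stems and leaves. Effect scored visually 21 days after treatment on a graded level scale relative to weed in the blank control area.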

Barnyard grass [10] = test: as above; set-up: key: grade level by weed remaining vs blank control, e.g. 5 = 10.1-15%; details: 150 g a.i./ha, visual inspection 21 days after treatment
Method in brief: as §2

Humulus scandens [11] = test: as above; set-up: key: grade level by weed remaining vs blank control, e.g. 5 = 10.1-15%; details: 150 g a.i./ha, visual inspection 21 days after treatment
Method in brief: as §2

green bristlegrass [12] = test: as above; set-up: key: grade level by weed remaining vs blank control, e.g. 5 = 10.1-15%; details: 150 g a.i./ha, visual inspection 21 days after treatment
Method in brief: as §2

Piemarker [13] = test: as above; set-up: key: grade level by weed remaining vs blank control, e.g. 5 = 10.1-15%; details: 150 g a.i./ha, visual inspection 21 days after treatment
Method in brief: as §2

Amaranthus retroflexus [14] = test: as above; set-up: key: grade level by weed remaining vs blank control, e.g. 5 = 10.1-15%; details: 150 g a.i./ha, visual inspection 21 days after treatment
Method in brief: as §2

Digitaria sanguinalis [15] = test: Herbicidal activity test for indoor pre-emergence soil treatment; set-up: key: 1-9 levels; higher = more weed remaining vs blank control; details: 150 g a.i./ha, visual inspection 21 days after treatment
Method in brief: as §1

Amaranthus retroflexus [16] = test: as above; set-up: key: 1-9 levels; higher = more weed remaining vs blank control; details: 150 g a.i./ha, visual inspection 21 days after treatment
Method in brief: as §1

Cyperaceae = test: Post-emergence herbicidal activity test in a paddy field; set-up: key: level scale; higher level = more weed left vs blank control; details: 150 g a.i./ha (penoxsulam control 250 g(a.i.)/h)
Method in brief: (§3)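 Efficacy was visually estimated 15 and 30 days after spraying, grading weed coverage relative to an untreated neighbouring plot (level 2 = 0 to 2.5%, level 9 = 67.6 to 100%). Treatments were 150 g(a.i.)/ha from 10% emulsifiable concentrates applied at the 4-5 leaf rice stage, four repeats of 50 m^2 each.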

Gramineae = test: as above; set-up: key: level scale; higher level = more weed left vs blank control; details: 150 g a.i./ha (penoxsulam control 250 g(a.i.)/h)
Method in brief: as §3

Broadleaf weed = test: as above; set-up: key: level scale; higher level = more weed left vs blank control; details: 150 g a.i./ha (penoxsulam control 250 g(a.i.)/h)
Method in brief: as §3

Structure (SMILES) | Herbicidal Activity Barnyard grass (Barnyard grass [1]) | Herbicidal Activity Green bristlegrass (green bristlegrass [2]) | Herbicidal Activity Piemarker (Piemarker [3]) | Herbicidal Activity Humulus scandens (Humulus scandens [4]) | Post-emergence weed control effect, Digitaria sanguinalis (Digitaria sanguinalis [5]) | Post-emergence weed control effect, Chenopodium album (Chenopodium album) | Post-emergence weed control effect, Convolvulus arvensis (Convolvulus arvensis) | Post-emergence weed control effect, Barnyard grass (Barnyard grass [6]) | Post-emergence weed control effect, Acalypha australis (Acalypha australis) | Post-emergence weed control effect, Solanum nigrum (Solanum nigrum) | Post-emergence weed control effect, Portulaca oleracea (Portulaca oleracea) | Post-emergence weed control effect, Green bristlegrass (green bristlegrass [7]) | Post-emergence weed control effect, Amaranthus retroflexus (Amaranthus retroflexus [8]) | Post-emergence weed control effect, Goose grass (goosegrass) | Post-emergence weed control effect, Nutgrass flatsedge (nutgrass flatsedge) | Herbicidal Activity Digitaria sanguinalis (Digitaria sanguinalis [9]) | Herbicidal Activity Barnyard grass (Barnyard grass [10]) | Herbicidal Activity Humulus scandens (Humulus scandens [11]) | Herbicidal Activity Green bristlegrass (green bristlegrass [12]) | Herbicidal Activity Piemarker (Piemarker [13]) | also measured
Cc1cccc(C(=O)NCc2cccc(F)c2)n1 [Compound B22] | 1 | 1 | 1 | 2 (equivalent to 0 to 2.5% of the weed in the blank control area) | 2 (equivalent to 0 to 2.5% of the weed in the blank control area) | 1 | 1 | 1 | 1 | 2 (equivalent to 0 to 2.5% of the weed in the blank control area) | 1 | 1 | 1 | 2 (equivalent to 0 to 2.5% of the weed in the blank control area) | 2 (equivalent to 0 to 2.5% of the weed in the blank control area) | 1 | 1 | 1 | 1 | 1 | Herbicidal Activity Amaranthus retroflexus (Amaranthus retroflexus [14]): 1; Herbicidal Activity Digitaria sanguinalis (Digitaria sanguinalis [15]): 1; Herbicidal Activity Amaranthus retroflexus (Amaranthus retroflexus [16]): 1; Herbicidal activity 15 days after treatment Cyperaceae (Cyperaceae): 1; Herbicidal activity 30 days after treatment Cyperaceae (Cyperaceae): 1; Herbicidal activity 15 days after treatment Gramineae (Gramineae): 1; Herbicidal activity 30 days after treatment Gramineae (Gramineae): 1; Herbicidal activity 15 days after treatment Broadleaf weed (Broadleaf weed): 1; Herbicidal activity 30 days after treatment Broadleaf weed (Broadleaf weed): 1
COc1ccc(OC)c(C(=O)NCc2cc(F)cc(F)c2)c1 [Compound A24] | 1 | 1 | 1 | 1 | 2 (equivalent to 0 to 2.5% of the weed in the blank control area) | 1 | 1 | 1 | 3 (equivalent to 2.6 to 5% of the weed in the blank control area) | 2 (equivalent to 0 to 2.5% of the weed in the blank control area) | 1 | 1 | 1 | 2 (equivalent to 0 to 2.5% of the weed in the blank control area) | 3 (equivalent to 2.6 to 5% of the weed in the blank control area) | 1 | 1 | 1 | 1 | 1 | Herbicidal Activity Amaranthus retroflexus (Amaranthus retroflexus [14]): 1; Herbicidal Activity Digitaria sanguinalis (Digitaria sanguinalis [15]): 1; Herbicidal Activity Amaranthus retroflexus (Amaranthus retroflexus [16]): 1; Herbicidal activity 15 days after treatment Cyperaceae (Cyperaceae): 1; Herbicidal activity 30 days after treatment Cyperaceae (Cyperaceae): 1; Herbicidal activity 15 days after treatment Gramineae (Gramineae): 1; Herbicidal activity 30 days after treatment Gramineae (Gramineae): 1; Herbicidal activity 15 days after treatment Broadleaf weed (Broadleaf weed): 1; Herbicidal activity 30 days after treatment Broadleaf weed (Broadleaf weed): 1
